Assay results as given in a melting point compilation (Tetko et al.; mined from patent text by program, amines drawn as free bases though some values may be those of a salt).

SMILES	melting point [°C]
CSc1ncc2c(=O)[nH]c(-c3ccccc3OCC3CC3)nc2n1	186 to 187
O=C(/C=C/c1ccc(O)cc1)C(F)(F)F	106 to 107
Cn1nc(C(F)(F)F)cc1-c1ccc(CN2CCN(c3ccc(OCC4CCn5cc([N+](=O)[O-])nc5O4)cc3)CC2)s1 (configuration not stated)	180 to 181
Cc1cc(C#N)cc(-c2ccc3c(c2)C(C)(C)OC(=O)N3)c1	256 to 258
O=S1(=O)c2ccccc2C(c2ccccc2)N1CCCl (configuration not stated)	121
COC(=O)[C@H]1CCc2c(OC)cccc2[C@@H]1O	87 to 88
CCCC(C=NNC(=O)OC)c1ccc(Cl)cc1Cl (configuration not stated)	165 to 166
Cn1cc(C#N)nc1-c1ncc[nH]1	238 to 239
Brc1cccc(P(c2ccccc2)c2ccccc2)n1	81
CCCc1c(OCC2Cc3c(ccc(C(C)=O)c3O)O2)ccc(C(C)=O)c1O (configuration not stated)	104 to 106
Nc1cccc(Br)c1-c1ncc[nH]1	164 to 165
FC(F)(F)c1cccc(N(c2ccccc2)c2ccc(-c3ccc(N(c4ccccc4)c4cccc(C(F)(F)F)c4)cc3)cc2)c1	150
CCCn1c(CO)nc(C(C)C)c1Sc1cc(Cl)cc(Cl)c1	104 to 107
CCOC(=O)c1c(-c2ccc(OC)c(OC)c2)c2cc(C)ccc2n(C)c1=O	109 to 110
COc1ccc(Cn2ncc3c4c(cnc32)CN(S(=O)(=O)c2ccccc2)CC4)cc1	136 to 138
O=C1NC(=O)C(=Cc2ccc(SCCc3ccc(Cl)cc3)cc2)S1	215 to 225
CCC#CCOc1ccc(/C=C/C(=O)Nc2ccccc2C(=O)O)cc1OC	186
Cc1cc(Br)ccc1S(N)(=O)=O	179 to 180
CN1CCSC1=NC(=Nc1ccccc1)N1CCCC1	160 to 162
CCCCOC(=O)Cc1cc2c(s1)CCN(C(=O)[C@H](Cc1ccc(O)cc1)NC(=O)c1ccc(C(=N)N)cc1)C2	176 to 178
Cc1nc2cc(Cl)c(C)c(Cl)c2o1	80 to 82
O=c1c2c([nH]n1-c1ccc(Br)cc1)-c1cc(Cl)ccc1SC2	257 to 260
COc1ccc2c(cccc2[C@H]2CO[C@H](CCCNC(=O)OCC(N)=O)OC2)c1	148 to 150
COc1ccccc1C(=O)N(c1ccccc1)c1ccc(OCCN(C)C)cc1	82.5 to 85.5
COC(=O)C1(NC(=O)Cc2cc(-c3ccc(Cl)cc3)ccc2Cl)CCC(F)(F)CC1	146 to 147
CN(C)CCn1c(-c2cccc(C(F)(F)F)c2)cc2c1CCSC2	88.5 to 90

SMILES	melting point [°C]
Cc1cc2nc(/C=C/c3ccccc3)n(-c3ccccn3)c2cc1C	136 to 137
O=C1CCCC2=C1C(c1ccc(F)c(I)c1)C1=C(CCS1)N2 (configuration not stated)	> 250
C#CCOc1cc(N)ccc1C	75 to 77
CCOC(=O)COc1cc(C=O)ccc1OCc1ccccc1	36 to 43
O=C(O)CCCCCCCn1nc(-c2ccccc2)c(-c2ccccc2)nc1=O	111 to 113
CCOC(=O)c1cn(C)c2cc(F)c(F)cc2c1=O	210 to 212
COc1c(C)cnc(CSc2nc(C)cc(=O)[nH]2)c1C	231 to 233
COC(=O)[C@H]1CC[C@@H](c2ccc(F)cc2)N1S(=O)(=O)c1ccc(C)cc1 (racemic)	91
Cc1c(-c2ccccc2)oc2c(C(=O)NCCCl)cccc2c1=O	181 to 182
O=C(O)CCCOc1cccc(-c2n[nH]c3c2Cc2ccccc2-3)c1	216 to 217
CC(=O)OC1CCC2(C)C(=CCC3C2CCC2(C)C(n4ccnn4)=CCC32)C1 (configuration not stated)	158 to 160
O=C1C(=O)c2ccc(-c3cccnc3)cc2C2=C1SCC1(CCNCC1)O2	213 to 215
COC(=O)C1Cc2c(n(C)c3ccccc23)CN1C(=S)SCc1cccs1 (configuration not stated)	139 to 140
O[C@@H](COc1ccccc1)CN(CCc1ccc(OCc2ccccc2)cc1)C[C@@H](O)COc1ccccc1 (racemic)	106 to 110
CCCN(CCC)C(=O)COc1cc(C)nc(-c2ccccc2)n1	68 to 69
Cc1c(Cc2ccc(N3C(=O)C=CC3=O)c(C)c2C)ccc(N2C(=O)C=CC2=O)c1C	210 to 220
N#Cc1cnn2c(C(F)(F)F)cc(-c3ccc(C(F)(F)F)cc3)nc12	176
CCCSc1ncnc2c(N3CCCCC3)nc(Cl)nc12	107 to 109
COc1cc(N)c(Cl)cc1C(=O)NCC12CCCN(CCC1)C2	202 to 203
O=C(O)c1ccccc1OCc1cccc(OCc2ccc3ccccc3n2)c1	149 to 154
COC(=O)[C@H]1Cc2cc(SC)ccc2C(=O)[C@H](C)S1 (relative stereo)	105 to 106
CCCCCCCCCCCCCCCCCCOC1OCC(CNC(=O)C(F)(F)F)O1 (configuration not stated)	80
CNC1Oc2cc(Cl)cc(-c3ccccc3F)c2O1 (configuration not stated)	> 250
CCCCCCCCCCC=C1SC(=S)N(CC(=O)O)C1=O	61 to 63
COc1ccc2c(c1)C1CCN(C)C(C1)N2C (configuration not stated)	72 to 73.5
CC(C)(N)CCOc1ccc(C2=NNC(=O)CC2)cc1Cl	152 to 156

SMILES	melting point [°C]
CN1C(=O)C2(CCCC2(C)C)c2ccccc21 (configuration not stated)	99 to 101
CC(C)(NC(=O)C1=C(C(=O)Nc2cc(OC3CCCC3)c(Cl)cc2F)CCCC1)c1ccc(Cl)cc1	218 to 219
CC(C)C1(C)N=C(c2nc3occ(Cl)c3cc2C(=O)O)NC1=O (configuration not stated)	239 to 240
CC(NC(Nc1ccc(Cl)cc1)=C(C#N)S(C)(=O)=O)C(C)(C)C (configuration not stated)	160 to 162
CN(C)c1ccc(C=Nn2ccnc2CCc2ccccc2)cc1	153 to 154
C=C(C)C1CCC2(CO)CCC3(C)C(CCC4C5(C)CCC(O)C(C)(CO)C5CCC43C)C12 (configuration not stated)	256 to 260
Cc1cc(-c2cc(O)c(SCc3ccccc3)c(=O)o2)cc(C)n1	88 to 90
CC(CC(=O)O)C(=O)c1ccc(F)cc1 (configuration not stated)	75 to 78
CC(C)Oc1cccc(CC(=O)N2CCCC(CCN3CCC(C(=O)c4nc5ccccc5n4Cc4ccc(F)cc4)CC3)(c3ccc(Cl)c(Cl)c3)C2)c1 (configuration not stated)	70 to 73
Cc1sc(-c2cnc3ccccc3c2)nc1O	279 to 280
CCC(C(C)=CC(CNC(=O)c1cccnc1)=NO)[N+](=O)[O-] (configuration not stated)	105 to 108
O=C(O)c1cccc(-c2ccc(Cl)c(C(=O)NCC34CC5CC(CC(C5)C3)C4)c2)c1	255 to 257
COC(=O)Cn1ccc2ccc(-c3csc(-c4ccccc4)n3)cc21	83
CCOC(=O)c1c(-c2ccncc2)[nH]c(-c2ccncc2)c1-c1ccc([N+](=O)[O-])cc1	274 to 276
COC(=O)c1ccc(F)cc1NS(C)(=O)=O	116
CC(OC=O)C1C(=O)N([Si](C)(C)C(C)(C)C)C1CC(=O)O (mixture of isomers)	109 to 110
COc1ccc(Cc2oc3c(Cl)cc(CCC(=O)O)c(O)c3c2C)cc1	149 to 151
O=S(=O)(NCC1CCN(CCCOc2ccc(F)cc2)CC1)c1cccc2cnccc12	123 to 125
COc1cc(Nc2c(C#N)cnc3cc(-c4cccc(CN5CCN(C)CC5)c4)ccc23)c(Cl)cc1Cl	104 to 106
CN1CCN(c2cccc(-c3cnn4cc(C(=O)O)cnc34)c2)CC1	274 to 281
C1=C2CCC=C2CCCCCCCCC1	97 to 102
CCOC(=O)Cc1cnn(CC)c1O	107 to 108
COc1ccc(C(=O)[C@H]2CCCN2C(=O)C(F)(F)F)cc1OC	121 to 123
CCCn1nc(OCc2ccc3ccccc3n2)cc1C(=O)OC	71 to 72
CC(C)(C)OC(=O)CCc1cccc(-c2nc(=O)c3ccccc3s2)n1	166
Cc1cc(COc2ccc(Cl)cc2CN)on1	32 to 35

SMILES	melting point [°C]
O=C(Nc1ccc(-n2nc(C3CC3)cc2C2CC2)cc1)c1c(Cl)cncc1Cl	159 to 164
C=CCCCn1nnc(-c2ccc3[nH]c(CCCC)nc(=O)c3c2)n1	130
CC1CN(Cc2ccccc2)C(=O)C(=C2SC=CS2)C1=O (configuration not stated)	168 to 170
N[C@@H](Cc1ccccc1)[C@@H](O)C[C@H](Cc1ccccc1)NC(=O)OCc1cncs1	61 to 63
COc1ccc(/C(=C/c2ccncc2)c2ccco2)cc1OC1CCCC1	122 to 123
CCOc1cc(OCC)c([N+](=O)[O-])c(OCC)c1[N+](=O)[O-]	105
COC(=O)c1ccc2c(=O)c3ccccc3ccc2c1	115 to 116
CN1CCN(c2cc3c(cc2F)c(=O)c(C(=O)O)c2ccccn23)CC1	264 to 266
CCCC1=C(Br)c2cc3c(cc2C1)OCO3	96 to 97
CC(C)NCC1(O)COc2ccc(O)cc2OC1 (configuration not stated)	108 to 110
CN(C)c1nc(C(F)(F)F)cc(=O)o1	79
CC(C)(C)OC(=O)CNC(=O)c1ccc(N)c(Cl)c1	116 to 117
COc1cc2c(cc1OC)-c1c(C(=O)c3ccccc3)c(-c3cc(C)c(O)c(C)c3)c(C)n1CC2	194 to 196
O=C1CC2(c3ccccc3)CCCC=C2C(=O)N1CC1CCCCC1 (configuration not stated)	111 to 113
O=C1c2c(cc(O)c(Cl)c2Cl)CC1c1ccccc1 (configuration not stated)	250 to 252
CN(C)Cc1cc(C(=O)c2ccc3ccccc3c2)cc(C(C)(C)C)c1O	162 to 164
CC12C=CCC1c1ccc3cc(O)ccc3c1CC2 (configuration not stated)	162 to 163
Cc1cc(C)c(Nc2nc(C)ncc2S(=O)(=O)c2ccc(N3CCCC3)cc2)c(C)c1	196 to 198
COc1cccc(OC)c1C(=O)Nc1cccc2c1CCN(C)C2	191 to 192
N=C(NO)c1ccc(-c2ccc(-c3ccc(C(=N)NO)o3)o2)nc1	248 to 250
Cc1cccc(C)c1CNc1cc(CO)cc2c1nc(C)n2C	245 to 246
OCC1OC(n2cnc3c(NNC4CCSc5ccccc54)ncnc32)C(O)C1O (configuration not stated)	105 to 107
CC(=O)Nc1ccc2[nH]c(C(=O)N3CC(CCl)c4c3cc(N)c3ccccc43)cc2c1 (configuration not stated)	> 300
CC(=O)N[C@@H](CC(C)C)C(=O)N[C@@H](CC(C)C)C(=O)N[C@H]1CCCOC1OC(C)=O (some centres not stated)	238 to 240
